Data reported in ChEMBL document CHEMBL1145498, “A systematic interaction map of validated kinase inhibitors with Ser/Thr kinases” (Proc Natl Acad Sci U S A, 2007).

Target: cAMP-dependent protein kinase catalytic subunit alpha (Homo sapiens) (UniProt P17612)

ΔTm [°C]	Structure (SMILES)
0.2	Clc1ccc(Nc2nnc(Cc3ccncc3)c3ccccc23)cc1
0.9	Cn1cc(/C=C2/C(=O)Nc3ccc(S(N)(=O)=O)cc32)c2ccccc21
1.6	N#C/C(=C1/Nc2ccccc2S1)c1ccnc(NCCc2cccnc2)n1

Target: Casein kinase I isoform gamma-2 (Homo sapiens) (UniProt P78368)
Sequence (P78368 whole entry, looked up, canonical isoform): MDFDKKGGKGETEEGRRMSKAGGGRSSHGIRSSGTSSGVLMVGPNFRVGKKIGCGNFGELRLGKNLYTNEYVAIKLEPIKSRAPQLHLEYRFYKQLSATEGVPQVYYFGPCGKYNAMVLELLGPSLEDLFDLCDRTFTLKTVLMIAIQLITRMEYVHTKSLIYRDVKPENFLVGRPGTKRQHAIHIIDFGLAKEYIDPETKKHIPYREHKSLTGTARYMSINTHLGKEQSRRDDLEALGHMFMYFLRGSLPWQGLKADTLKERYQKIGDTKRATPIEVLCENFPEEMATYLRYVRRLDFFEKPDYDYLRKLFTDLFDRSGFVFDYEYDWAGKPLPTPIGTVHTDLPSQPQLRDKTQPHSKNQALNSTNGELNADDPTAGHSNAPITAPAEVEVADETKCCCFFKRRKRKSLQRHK

ΔTm [°C]	Structure (SMILES)
0	Clc1ccc(Nc2nnc(Cc3ccncc3)c3ccccc23)cc1
0.5	Cn1cc(/C=C2/C(=O)Nc3ccc(S(N)(=O)=O)cc32)c2ccccc21
2.5	N#C/C(=C1/Nc2ccccc2S1)c1ccnc(NCCc2cccnc2)n1

Target: Dual specificity protein kinase CLK1 (Homo sapiens) (UniProt P49759)
Sequence (P49759 whole entry, looked up): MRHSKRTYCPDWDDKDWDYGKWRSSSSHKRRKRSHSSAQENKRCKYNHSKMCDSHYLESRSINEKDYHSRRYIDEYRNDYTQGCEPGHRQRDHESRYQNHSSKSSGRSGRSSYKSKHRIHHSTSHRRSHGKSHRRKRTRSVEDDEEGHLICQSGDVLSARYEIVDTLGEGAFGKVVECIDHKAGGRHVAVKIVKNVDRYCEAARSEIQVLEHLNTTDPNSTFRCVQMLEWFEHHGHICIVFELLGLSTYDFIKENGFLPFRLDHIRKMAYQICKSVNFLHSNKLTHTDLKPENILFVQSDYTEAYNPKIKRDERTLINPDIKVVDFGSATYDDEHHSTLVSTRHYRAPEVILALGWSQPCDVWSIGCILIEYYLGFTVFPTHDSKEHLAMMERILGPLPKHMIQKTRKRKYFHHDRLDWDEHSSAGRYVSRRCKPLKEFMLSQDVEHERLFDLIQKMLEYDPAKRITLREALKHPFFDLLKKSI

ΔTm [°C]	Structure (SMILES)
0.1	Clc1ccc(Nc2nnc(Cc3ccncc3)c3ccccc23)cc1
4.7	Cn1cc(/C=C2/C(=O)Nc3ccc(S(N)(=O)=O)cc32)c2ccccc21
5.9	N#C/C(=C1/Nc2ccccc2S1)c1ccnc(NCCc2cccnc2)n1

Target: T1, Dual specificity mitogen-activated protein kinase kinase 6 (Homo sapiens) (UniProt P52564)
T1 sequence (whole entry): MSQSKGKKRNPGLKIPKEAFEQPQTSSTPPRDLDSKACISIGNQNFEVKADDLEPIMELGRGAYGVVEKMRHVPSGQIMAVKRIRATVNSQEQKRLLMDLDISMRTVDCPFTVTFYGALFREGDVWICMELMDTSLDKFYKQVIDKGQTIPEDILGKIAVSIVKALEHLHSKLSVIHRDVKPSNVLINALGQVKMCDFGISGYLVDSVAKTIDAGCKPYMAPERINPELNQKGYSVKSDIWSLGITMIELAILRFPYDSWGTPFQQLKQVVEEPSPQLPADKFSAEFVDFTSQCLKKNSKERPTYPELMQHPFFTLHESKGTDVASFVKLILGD

ΔTm [°C]	Structure (SMILES)
0.4	Clc1ccc(Nc2nnc(Cc3ccncc3)c3ccccc23)cc1
10.3	Cn1cc(/C=C2/C(=O)Nc3ccc(S(N)(=O)=O)cc32)c2ccccc21
3.5	N#C/C(=C1/Nc2ccccc2S1)c1ccnc(NCCc2cccnc2)n1

Target: T2, Calcium/calmodulin-dependent protein kinase type IV (Homo sapiens) (UniProt Q16566)
T2 sequence (whole entry): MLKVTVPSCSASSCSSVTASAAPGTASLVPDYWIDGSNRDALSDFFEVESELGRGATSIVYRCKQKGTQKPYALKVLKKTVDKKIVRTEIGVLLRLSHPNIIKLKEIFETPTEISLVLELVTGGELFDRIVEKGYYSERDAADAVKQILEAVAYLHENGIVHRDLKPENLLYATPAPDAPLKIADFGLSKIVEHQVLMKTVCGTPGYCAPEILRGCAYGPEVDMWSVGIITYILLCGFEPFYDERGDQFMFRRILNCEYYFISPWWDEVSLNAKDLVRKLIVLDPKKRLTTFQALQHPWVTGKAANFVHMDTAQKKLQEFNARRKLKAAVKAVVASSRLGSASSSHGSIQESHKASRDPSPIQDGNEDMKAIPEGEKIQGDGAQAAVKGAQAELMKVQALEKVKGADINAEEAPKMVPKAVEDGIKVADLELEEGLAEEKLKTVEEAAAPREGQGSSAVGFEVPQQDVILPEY

ΔTm [°C]	Structure (SMILES)
1.9	Clc1ccc(Nc2nnc(Cc3ccncc3)c3ccccc23)cc1
1.1	Cn1cc(/C=C2/C(=O)Nc3ccc(S(N)(=O)=O)cc32)c2ccccc21
1.4	N#C/C(=C1/Nc2ccccc2S1)c1ccnc(NCCc2cccnc2)n1

Target: Serine/threonine-protein kinase RIO2 (Homo sapiens) (UniProt Q9BVS4)
Sequence (Q9BVS4 whole entry, looked up): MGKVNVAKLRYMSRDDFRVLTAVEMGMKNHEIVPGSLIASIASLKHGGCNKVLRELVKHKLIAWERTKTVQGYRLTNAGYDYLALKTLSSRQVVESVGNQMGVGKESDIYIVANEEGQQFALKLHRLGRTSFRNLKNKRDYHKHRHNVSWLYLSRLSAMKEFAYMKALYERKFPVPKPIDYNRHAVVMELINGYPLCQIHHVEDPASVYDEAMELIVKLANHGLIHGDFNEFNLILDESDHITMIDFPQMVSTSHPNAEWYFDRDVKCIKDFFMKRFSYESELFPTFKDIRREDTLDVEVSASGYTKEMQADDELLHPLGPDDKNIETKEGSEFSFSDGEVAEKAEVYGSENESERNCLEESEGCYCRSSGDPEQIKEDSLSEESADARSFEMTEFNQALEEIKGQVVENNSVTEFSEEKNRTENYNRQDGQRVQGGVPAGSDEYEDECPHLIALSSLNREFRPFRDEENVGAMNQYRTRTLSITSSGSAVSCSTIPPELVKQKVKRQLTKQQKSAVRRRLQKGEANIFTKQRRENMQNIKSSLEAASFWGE

ΔTm [°C]	Structure (SMILES)
-0.8	Clc1ccc(Nc2nnc(Cc3ccncc3)c3ccccc23)cc1
5	Cn1cc(/C=C2/C(=O)Nc3ccc(S(N)(=O)=O)cc32)c2ccccc21
7	N#C/C(=C1/Nc2ccccc2S1)c1ccnc(NCCc2cccnc2)n1

Target: TRAF2 and NCK-interacting protein kinase (Homo sapiens) (UniProt Q9UKE5)

ΔTm [°C]	Structure (SMILES)
1.3	Cn1cc(/C=C2/C(=O)Nc3ccc(S(N)(=O)=O)cc32)c2ccccc21
3.4	N#C/C(=C1/Nc2ccccc2S1)c1ccnc(NCCc2cccnc2)n1

Target: Mitogen-activated protein kinase 3 (Homo sapiens, UniProt P27361)
Sequence (P27361 whole entry): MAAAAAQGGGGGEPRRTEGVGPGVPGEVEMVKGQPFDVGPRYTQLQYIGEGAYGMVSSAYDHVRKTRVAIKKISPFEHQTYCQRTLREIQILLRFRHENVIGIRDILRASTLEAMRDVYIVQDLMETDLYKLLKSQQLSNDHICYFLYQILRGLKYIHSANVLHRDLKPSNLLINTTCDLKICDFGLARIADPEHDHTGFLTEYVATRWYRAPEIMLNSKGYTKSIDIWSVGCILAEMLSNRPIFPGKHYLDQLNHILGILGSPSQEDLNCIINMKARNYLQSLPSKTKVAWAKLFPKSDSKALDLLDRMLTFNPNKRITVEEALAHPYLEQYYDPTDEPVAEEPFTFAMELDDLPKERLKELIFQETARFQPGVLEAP

ΔTm [°C]	Structure (SMILES)
0	Clc1ccc(Nc2nnc(Cc3ccncc3)c3ccccc23)cc1
1.2	Cn1cc(/C=C2/C(=O)Nc3ccc(S(N)(=O)=O)cc32)c2ccccc21
1.7	N#C/C(=C1/Nc2ccccc2S1)c1ccnc(NCCc2cccnc2)n1

Target: Tyrosine-protein kinase JAK1 (Homo sapiens) (UniProt P23458)
Sequence (P23458 whole entry): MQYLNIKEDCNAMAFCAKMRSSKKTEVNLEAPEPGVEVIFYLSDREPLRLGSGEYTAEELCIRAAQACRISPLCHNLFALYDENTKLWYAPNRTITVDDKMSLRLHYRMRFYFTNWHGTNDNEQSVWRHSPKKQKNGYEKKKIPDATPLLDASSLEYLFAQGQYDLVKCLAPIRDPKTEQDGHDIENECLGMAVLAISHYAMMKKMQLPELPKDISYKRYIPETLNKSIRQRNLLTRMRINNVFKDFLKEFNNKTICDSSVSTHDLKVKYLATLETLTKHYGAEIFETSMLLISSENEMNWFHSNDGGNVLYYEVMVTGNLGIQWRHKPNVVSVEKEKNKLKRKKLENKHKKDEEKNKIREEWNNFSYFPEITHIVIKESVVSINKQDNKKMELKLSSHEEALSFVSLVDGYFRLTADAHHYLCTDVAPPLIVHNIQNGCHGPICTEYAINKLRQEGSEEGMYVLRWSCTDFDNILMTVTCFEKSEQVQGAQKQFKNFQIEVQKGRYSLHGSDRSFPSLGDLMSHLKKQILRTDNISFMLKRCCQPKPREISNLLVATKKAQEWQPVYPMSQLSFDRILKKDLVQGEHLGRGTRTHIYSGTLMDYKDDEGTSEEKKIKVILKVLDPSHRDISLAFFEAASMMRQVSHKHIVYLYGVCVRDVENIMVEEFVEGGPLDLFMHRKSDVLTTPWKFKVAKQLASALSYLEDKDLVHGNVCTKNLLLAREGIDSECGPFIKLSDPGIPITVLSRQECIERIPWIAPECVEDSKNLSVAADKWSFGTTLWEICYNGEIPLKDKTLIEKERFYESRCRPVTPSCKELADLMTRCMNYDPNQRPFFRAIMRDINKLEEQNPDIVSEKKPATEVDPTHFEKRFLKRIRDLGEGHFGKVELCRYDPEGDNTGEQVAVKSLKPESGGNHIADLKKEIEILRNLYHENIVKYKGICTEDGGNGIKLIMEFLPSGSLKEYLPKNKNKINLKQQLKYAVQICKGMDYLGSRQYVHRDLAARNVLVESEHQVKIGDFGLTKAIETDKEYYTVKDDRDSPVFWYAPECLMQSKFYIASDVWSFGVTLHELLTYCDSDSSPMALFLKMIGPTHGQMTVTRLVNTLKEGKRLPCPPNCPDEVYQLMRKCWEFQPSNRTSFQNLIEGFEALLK

ΔTm [°C]	Structure (SMILES)
1.3	Clc1ccc(Nc2nnc(Cc3ccncc3)c3ccccc23)cc1
4.3	Cn1cc(/C=C2/C(=O)Nc3ccc(S(N)(=O)=O)cc32)c2ccccc21
7.5	N#C/C(=C1/Nc2ccccc2S1)c1ccnc(NCCc2cccnc2)n1

Target: STE20-like serine/threonine-protein kinase (Homo sapiens) (UniProt Q9H2G2)

ΔTm [°C]	Structure (SMILES)
8.4	Cn1cc(/C=C2/C(=O)Nc3ccc(S(N)(=O)=O)cc32)c2ccccc21
1.8	N#C/C(=C1/Nc2ccccc2S1)c1ccnc(NCCc2cccnc2)n1

Target: Serine/threonine-protein kinase Chk2 (Homo sapiens, UniProt O96017)
Sequence (O96017 whole entry): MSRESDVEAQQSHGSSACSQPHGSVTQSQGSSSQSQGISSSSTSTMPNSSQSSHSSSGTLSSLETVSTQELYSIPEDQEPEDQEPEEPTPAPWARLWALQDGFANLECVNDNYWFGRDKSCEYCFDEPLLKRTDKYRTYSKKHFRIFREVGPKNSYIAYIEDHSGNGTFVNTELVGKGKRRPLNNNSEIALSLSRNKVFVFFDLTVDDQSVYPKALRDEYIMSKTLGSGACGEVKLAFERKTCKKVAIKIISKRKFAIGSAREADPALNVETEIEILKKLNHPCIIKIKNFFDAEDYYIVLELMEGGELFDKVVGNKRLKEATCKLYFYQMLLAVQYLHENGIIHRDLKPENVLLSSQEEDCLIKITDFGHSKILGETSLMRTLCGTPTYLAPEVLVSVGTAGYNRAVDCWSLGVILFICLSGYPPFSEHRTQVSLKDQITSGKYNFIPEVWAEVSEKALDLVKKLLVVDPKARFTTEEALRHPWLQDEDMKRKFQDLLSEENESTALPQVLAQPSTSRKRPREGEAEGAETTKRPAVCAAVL

ΔTm [°C]	Structure (SMILES)
0.2	Clc1ccc(Nc2nnc(Cc3ccncc3)c3ccccc23)cc1
10.6	Cn1cc(/C=C2/C(=O)Nc3ccc(S(N)(=O)=O)cc32)c2ccccc21
5.2	N#C/C(=C1/Nc2ccccc2S1)c1ccnc(NCCc2cccnc2)n1

Target: Calcium/calmodulin-dependent protein kinase kinase 2 (Homo sapiens, UniProt Q96RR4)
Sequence (Q96RR4 2-588 limits assumed): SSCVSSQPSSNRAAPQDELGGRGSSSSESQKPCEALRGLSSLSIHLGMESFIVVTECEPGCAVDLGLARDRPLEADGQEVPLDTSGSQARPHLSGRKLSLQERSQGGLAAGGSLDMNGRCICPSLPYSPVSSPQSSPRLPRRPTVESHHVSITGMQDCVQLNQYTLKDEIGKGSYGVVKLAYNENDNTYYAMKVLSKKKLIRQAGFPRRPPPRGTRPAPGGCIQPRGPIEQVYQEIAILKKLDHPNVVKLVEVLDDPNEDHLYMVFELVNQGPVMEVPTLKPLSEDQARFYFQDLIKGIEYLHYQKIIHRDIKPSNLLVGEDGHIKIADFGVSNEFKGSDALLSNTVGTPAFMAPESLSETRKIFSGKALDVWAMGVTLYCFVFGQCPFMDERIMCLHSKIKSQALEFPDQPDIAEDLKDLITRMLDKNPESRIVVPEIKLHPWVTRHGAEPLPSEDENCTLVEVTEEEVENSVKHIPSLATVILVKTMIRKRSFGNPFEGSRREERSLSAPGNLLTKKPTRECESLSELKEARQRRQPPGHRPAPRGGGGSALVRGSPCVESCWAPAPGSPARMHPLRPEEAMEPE

ΔTm [°C]	Structure (SMILES)
0.5	Clc1ccc(Nc2nnc(Cc3ccncc3)c3ccccc23)cc1
3.5	Cn1cc(/C=C2/C(=O)Nc3ccc(S(N)(=O)=O)cc32)c2ccccc21
3.7	N#C/C(=C1/Nc2ccccc2S1)c1ccnc(NCCc2cccnc2)n1

Target: Ribosomal protein S6 kinase alpha-3 (Homo sapiens) (UniProt P51812)

ΔTm [°C]	Structure (SMILES)
-0.4	Clc1ccc(Nc2nnc(Cc3ccncc3)c3ccccc23)cc1
7.8	Cn1cc(/C=C2/C(=O)Nc3ccc(S(N)(=O)=O)cc32)c2ccccc21

Target: 5'-AMP-activated protein kinase catalytic subunit alpha-2 (Homo sapiens) (UniProt P54646)

ΔTm [°C]	Structure (SMILES)
-0.1	Clc1ccc(Nc2nnc(Cc3ccncc3)c3ccccc23)cc1
8.3	Cn1cc(/C=C2/C(=O)Nc3ccc(S(N)(=O)=O)cc32)c2ccccc21
6	N#C/C(=C1/Nc2ccccc2S1)c1ccnc(NCCc2cccnc2)n1

Target: T3, Serine/threonine-protein kinase VRK3 (Homo sapiens) (UniProt Q8IV63)
T3 sequence (whole entry): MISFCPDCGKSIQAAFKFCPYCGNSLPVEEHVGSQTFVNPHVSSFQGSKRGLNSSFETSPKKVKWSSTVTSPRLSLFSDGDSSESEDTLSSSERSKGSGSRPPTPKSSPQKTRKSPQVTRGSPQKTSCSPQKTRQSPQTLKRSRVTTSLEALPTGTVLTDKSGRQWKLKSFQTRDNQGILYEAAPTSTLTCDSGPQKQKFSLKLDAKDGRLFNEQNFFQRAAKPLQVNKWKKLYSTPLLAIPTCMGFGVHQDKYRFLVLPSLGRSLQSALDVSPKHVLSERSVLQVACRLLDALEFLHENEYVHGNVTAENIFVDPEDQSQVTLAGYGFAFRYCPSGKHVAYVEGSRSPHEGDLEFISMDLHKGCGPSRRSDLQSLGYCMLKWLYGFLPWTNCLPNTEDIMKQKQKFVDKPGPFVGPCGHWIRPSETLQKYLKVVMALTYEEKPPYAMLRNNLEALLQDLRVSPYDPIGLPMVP

ΔTm [°C]	Structure (SMILES)
0.9	N#C/C(=C1/Nc2ccccc2S1)c1ccnc(NCCc2cccnc2)n1

Target: Casein kinase I isoform gamma-3 (Homo sapiens) (UniProt Q9Y6M4)

ΔTm [°C]	Structure (SMILES)
-0.2	Clc1ccc(Nc2nnc(Cc3ccncc3)c3ccccc23)cc1
0.2	Cn1cc(/C=C2/C(=O)Nc3ccc(S(N)(=O)=O)cc32)c2ccccc21
3.4	N#C/C(=C1/Nc2ccccc2S1)c1ccnc(NCCc2cccnc2)n1

Target: Calcium/calmodulin-dependent protein kinase type II subunit alpha (Homo sapiens) (UniProt Q9UQM7)
Sequence (Q9UQM7 whole entry): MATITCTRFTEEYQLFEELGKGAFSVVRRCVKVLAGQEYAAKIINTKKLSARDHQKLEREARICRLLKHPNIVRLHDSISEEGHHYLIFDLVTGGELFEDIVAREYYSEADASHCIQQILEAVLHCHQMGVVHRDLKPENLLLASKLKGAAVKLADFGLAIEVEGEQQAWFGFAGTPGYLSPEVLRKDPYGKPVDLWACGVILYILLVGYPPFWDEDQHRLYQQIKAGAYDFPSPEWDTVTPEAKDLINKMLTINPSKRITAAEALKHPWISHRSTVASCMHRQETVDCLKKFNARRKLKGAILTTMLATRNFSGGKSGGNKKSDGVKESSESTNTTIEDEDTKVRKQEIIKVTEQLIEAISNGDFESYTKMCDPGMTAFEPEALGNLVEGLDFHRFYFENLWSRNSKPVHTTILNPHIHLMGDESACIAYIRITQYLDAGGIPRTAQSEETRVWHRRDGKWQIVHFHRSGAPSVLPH

ΔTm [°C]	Structure (SMILES)
0.4	Clc1ccc(Nc2nnc(Cc3ccncc3)c3ccccc23)cc1
2.7	Cn1cc(/C=C2/C(=O)Nc3ccc(S(N)(=O)=O)cc32)c2ccccc21
2.6	N#C/C(=C1/Nc2ccccc2S1)c1ccnc(NCCc2cccnc2)n1

Target: T4, 3-phosphoinositide-dependent protein kinase 1 (Homo sapiens) (UniProt O15530)
T4 sequence (whole entry): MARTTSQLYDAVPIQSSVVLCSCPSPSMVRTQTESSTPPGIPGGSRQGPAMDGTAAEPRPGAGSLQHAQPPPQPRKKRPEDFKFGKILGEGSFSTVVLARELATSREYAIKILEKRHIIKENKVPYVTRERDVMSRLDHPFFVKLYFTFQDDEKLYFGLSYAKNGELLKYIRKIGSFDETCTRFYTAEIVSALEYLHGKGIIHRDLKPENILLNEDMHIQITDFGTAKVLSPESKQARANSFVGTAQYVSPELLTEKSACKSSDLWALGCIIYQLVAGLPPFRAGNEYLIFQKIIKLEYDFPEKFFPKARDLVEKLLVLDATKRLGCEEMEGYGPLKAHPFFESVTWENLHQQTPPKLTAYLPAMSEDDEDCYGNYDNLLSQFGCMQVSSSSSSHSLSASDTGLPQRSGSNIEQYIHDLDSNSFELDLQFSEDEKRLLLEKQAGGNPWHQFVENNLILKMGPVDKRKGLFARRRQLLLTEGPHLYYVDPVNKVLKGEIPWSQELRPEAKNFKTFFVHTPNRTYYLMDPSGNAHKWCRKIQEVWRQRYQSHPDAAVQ

ΔTm [°C]	Structure (SMILES)
4	Clc1ccc(Nc2nnc(Cc3ccncc3)c3ccccc23)cc1
0.2	Cn1cc(/C=C2/C(=O)Nc3ccc(S(N)(=O)=O)cc32)c2ccccc21
-0.1	N#C/C(=C1/Nc2ccccc2S1)c1ccnc(NCCc2cccnc2)n1

Target: Serine/threonine-protein kinase Nek6 (Homo sapiens) (UniProt Q9HC98)
Sequence (Q9HC98 whole entry): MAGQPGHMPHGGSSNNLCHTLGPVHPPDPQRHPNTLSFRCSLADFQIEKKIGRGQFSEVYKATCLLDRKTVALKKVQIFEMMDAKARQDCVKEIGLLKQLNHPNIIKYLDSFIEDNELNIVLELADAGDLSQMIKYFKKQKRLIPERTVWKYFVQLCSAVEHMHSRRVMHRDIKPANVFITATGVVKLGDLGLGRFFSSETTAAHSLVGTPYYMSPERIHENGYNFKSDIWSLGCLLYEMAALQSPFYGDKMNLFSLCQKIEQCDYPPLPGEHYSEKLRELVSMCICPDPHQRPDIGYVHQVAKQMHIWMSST

ΔTm [°C]	Structure (SMILES)
0.1	Clc1ccc(Nc2nnc(Cc3ccncc3)c3ccccc23)cc1
1.7	Cn1cc(/C=C2/C(=O)Nc3ccc(S(N)(=O)=O)cc32)c2ccccc21
1.7	N#C/C(=C1/Nc2ccccc2S1)c1ccnc(NCCc2cccnc2)n1
